Measured values published in patent publication US20080214508A1, “Methods of Administering Water-Soluble Prodrugs of Propofol” (MGI GP, INC., priority 2004, published 2008).
Several values for one entry are separate records, joined by “and”; a condition that tells them apart may be missing. Equal entries are not always repeated. Entries after “also recorded” stand apart in the source; their conditions may differ.

Legend:
[1] = Plasma propofol pharmacokinetics in Beagle dogs after intravenous, subcutaneous or rectal prodrug; format: in vivo
Description: Upon administration, the test prodrug is converted in the body into propofol, its pharmacologically active metabolite. The pharmacokinetic profile, i.e. the blood plasma concentration of propofol derived from the test prodrug, was assessed in a separate experiment. Three male Beagle dogs (8.7-10.9 kg) received intravenous, subcutaneous, or rectal doses of the prodrug (see Tab. 1, below). Blood samples were taken at pre-dose, 2 (only for intravenous and subcutaneous), 5, 15, 30 minutes, 1, 1.5, 2, 3, 4, 6, and 8 hrs after administration of the test prodrug. Blood samples were centrifuged to obtain plasma and stored frozen until analysis. The outcome of this experiment is depicted in the following Table I: […]

human subjects = conditions: intravenous infusions; cited from earlier work
[2] = anesthetic induction doses; cited from earlier work
[3] = Beagle dog 46, rectal, 16.8 mg/kg prodrug, first suppository expelled, second given, nominal dose used
[4] = Beagle dog 47, rectal, 15.7 mg/kg prodrug
[5] = Beagle dog 48, rectal, 18.4 mg/kg prodrug
[6] = Beagle dogs, i.v., 16 mg/kg prodrug, average of 3 dogs
[7] = Beagle dogs, i.v., 16 mg/kg prodrug, individual dogs 46, 47, 48, disodium salt, 16 mg/kg
[8] = Beagle dogs, rectal, 15.7-18.4 mg/kg prodrug, average of 3 dogs
[9] = Beagle dogs, subcut., 16 mg/kg prodrug, average of 3 dogs
[10] = Beagle dogs, subcut., 16 mg/kg prodrug, individual dogs 46, 47, 48, disodium salt, 16 mg/kg
[11] = rats, intravenous infusion over 10 minutes, 5-40 mg/kg

Description for Sprague-Dawley rats: FIG. 2 illustrates the sedative/anesthetic effects of various doses of the experimental compound when administered via the intravenous route.
For comparison, an additional two animals received a subcutaneous injection of propofol (80 mg/kg) in its commercially available liquid emulsion formulation. For further comparison, the above-described pharmacological effects of subcutaneous administration of the tested prodrug were compared with those caused by an intravenous infusion: Under halothane anesthesia, young adult rats received femoral vein catheters which were exteriorized and attached to a liquid swivel via a protectant spring. About 20 minutes after catheterization, and after full behavioral recovery from halothane anesthesia, each animal was attached to an electronic infusion pump and was administered vehicle, or 5, 10, 20, 30, or 40 mg/kg of the test prodrug (n=2 per dose) in 1 ml total volume by gradual constant-rate intravenous infusion over 10 minutes. Behavioral rating as described above began immediately following the end of infusion.

CC(C)c1cccc(C(C)C)c1OCOP(=O)([O-])[O-].[Na+].[Na+] [O-phosphonooxymethyl propofol disodium salt]
AUCLast of plasma propofol [1, 3]: 471.4 ng·h/mL | Cmax of plasma propofol [1, 3]: 220 ng/mL | Tmax of plasma propofol [1, 3]: 60 min | AUCLast of plasma propofol [1, 4]: 204.5 ng·h/mL | Cmax of plasma propofol [1, 4]: 170 ng/mL | Tmax of plasma propofol [1, 4]: 15 min | AUCLast of plasma propofol [1, 5]: 46.7 ng·h/mL | Cmax of plasma propofol [1, 5]: 90 ng/mL | Tmax of plasma propofol [1, 5]: 15 min | AUCLast of plasma propofol [1, 6]: 1728 ± 256.0 ng·h/mL | Cmax of plasma propofol [1, 6]: 3840 ± 1190 ng/mL | Tmax of plasma propofol [1, 6]: 1.8 min | Tmax of plasma propofol ([1]; Beagle dogs, i.v., 16 mg/kg prodrug, individual dogs 46, 47, 48): 1.8 min | AUCLast of plasma propofol [1, 7]: 1776 ng·h/mL and 1956 ng·h/mL and 1451 ng·h/mL | Cmax of plasma propofol [1, 7]: 2570 ng/mL and 4930 ng/mL and 4010 ng/mL | AUCLast of plasma propofol [1, 8]: 240.9 ± 214.7 ng·h/mL | Cmax of plasma propofol [1, 8]: 160 ± 60 ng/mL | Tmax of plasma propofol [1, 8]: 30 ± 25.8 min | AUCLast of plasma propofol [1, 9]: 1322 ± 557.7 ng·h/mL | Cmax of plasma propofol [1, 9]: 390 ± 90 ng/mL | Tmax of plasma propofol [1, 9]: 60 ± 30 min | AUCLast of plasma propofol [1, 10]: 1781 ng·h/mL and 1484 ng·h/mL and 701.6 ng·h/mL | Cmax of plasma propofol [1, 10]: 460 ng/mL and 420 ng/mL and 290 ng/mL | Tmax of plasma propofol [1, 10]: 90 min and 60 min and 30 min | potency of plasma propofol in suppressing EEG activity and causing a hypnotic effect, versus plasma propofol from infusions of propofol itself (human subjects): significantly more potent | duration of effects relative to subcutaneous administration (Sprague-Dawley rats; [11]): shorter duration compared to subcutaneous administration | onset of sedated behavior relative to subcutaneous injection (Sprague-Dawley rats; [11]): even more rapidly than after subcutaneous-injection | onset of sedated behavior after dosing (Sprague-Dawley rats; rats, single subcutaneous injection, 50-300 mg/kg): 5 to 10 min | duration of sedation (Sprague-Dawley rats; rats, subcutaneous, 50 mg/kg): 1 to 1.5 h | sedative effect compared to vehicle (Sprague-Dawley rats; rats, subcutaneous, 50 mg/kg): mild to moderate sedation | behavioral effect following sedation (Sprague-Dawley rats; rats, subcutaneous, 100, 200 and 300 mg/kg dose groups): loss of consciousness | duration of loss of consciousness (Sprague-Dawley rats; rats, subcutaneous, two highest dose groups (200 and 300 mg/kg)): more than two hours | time after administration until plateau effect is reached (Sprague-Dawley rats; subcutaneous administration): 10 to 15 min | duration for which plateau effect is maintained (Sprague-Dawley rats; subcutaneous administration, depending on dose): up to about thirty minutes to two hours or longer

CC(C)c1cccc(C(C)C)c1O [propofol, 2,6-diisopropylphenol]
patients with respiratory consequences, including reduction in tidal volume and apnea [2]: up to 83% | sedative effect (Sprague-Dawley rats; rats, subcutaneous, 80 mg/kg, commercially available liquid emulsion formulation): only very mild or no sedative effects; also recorded: none or only very mild sedation
